Test results as given in the OligoGym collection.
These antisense oligonucleotides have a phosphorothioate backbone; sugars and methylation of C are not fully specified.

Experiments:
Settings in all cases: ASO
PRKAR2A = biological target: PRKAR2A
CHEK2 = biological target: CHEK2
RIPK2 = biological target: RIPK2
NCOA2 = biological target: NCOA2
Note: test concentration or dose not given here.

## TTTGTTGGTGACCAGGGCAA
PRKAR2A
  remaining target (mRNA or protein) (fraction of control): 0.6

## TATTCCATAATTAAATCCAA
CHEK2
  remaining target (mRNA or protein) (fraction of control): ≥ 1

## CCATCAATTCCAAAACAATA
CHEK2
  remaining target (mRNA or protein) (fraction of control): ≥ 1

## TCTATTAAACATTTTAAGAA
RIPK2
  remaining target (mRNA or protein) (fraction of control): ≥ 1

## GCAGATGGCCTCCCCGTTCA
RIPK2
  remaining target (mRNA or protein) (fraction of control): 0.84

## TCCTTTTGCTGATGATCTTT
CHEK2
  remaining target (mRNA or protein) (fraction of control): 0.57

## ATTTTCATGGAGCTGAGAGG
RIPK2
  remaining target (mRNA or protein) (fraction of control): 0.68

## ATTCTCTGGCTTTAAGTCAC
CHEK2
  remaining target (mRNA or protein) (fraction of control): 0.63

## CAGTAGTTGTCATTCACACA
CHEK2
  remaining target (mRNA or protein) (fraction of control): 0.49

## TCTGCCCTTTGCTGTCAT
NCOA2
  remaining target (mRNA or protein) (fraction of control): 0.59

## CGTTCATGGTCCCGGGCGCT
RIPK2
  remaining target (mRNA or protein) (fraction of control): 0.76

## TATCCTTTTATGAAACACAT
RIPK2
  remaining target (mRNA or protein) (fraction of control): 0.69

## GACTTCAGGAATGAAGTTGT
CHEK2
  remaining target (mRNA or protein) (fraction of control): ≥ 1

## GCTGTGCTTGGAGGCGAT
NCOA2
  remaining target (mRNA or protein) (fraction of control): 0.43

## TCAGTGACACTTGAGTCCTA
CHEK2
  remaining target (mRNA or protein) (fraction of control): 0.87

## CCACAAGTATTTCCGGGTAA
RIPK2
  remaining target (mRNA or protein) (fraction of control): 0.36

## TTCTCTGAGACTTCTGCCCA
CHEK2
  remaining target (mRNA or protein) (fraction of control): 0.49

## TTTCTCCCATCCCACTCA
NCOA2
  remaining target (mRNA or protein) (fraction of control): 0.87

## ATTTCTGCTTAGTGACAGTG
CHEK2
  remaining target (mRNA or protein) (fraction of control): 0.65

## GAAGCATATGTAAAGATA
NCOA2
  remaining target (mRNA or protein) (fraction of control): ≥ 1

## TGCCTTCCAGGTTCACTA
NCOA2
  remaining target (mRNA or protein) (fraction of control): 0.99

## GACGCCACCCTGGGAACC
NCOA2
  remaining target (mRNA or protein) (fraction of control): 0.74

## GTAGGCACGGAGGTCACT
NCOA2
  remaining target (mRNA or protein) (fraction of control): ≥ 1

## CCAGGCTGCAGACGTTCTGA
RIPK2
  remaining target (mRNA or protein) (fraction of control): 0.3

## ATTCTCTTTCTTCTTGGG
NCOA2
  remaining target (mRNA or protein) (fraction of control): 0.71

## CCACGGAGTTCACAACACAG
CHEK2
  remaining target (mRNA or protein) (fraction of control): 0.74

## AGGCTTCTGTCATTTGGTTC
RIPK2
  remaining target (mRNA or protein) (fraction of control): 0.3

## ATACTTCATAAAATCAAATT
RIPK2
  remaining target (mRNA or protein) (fraction of control): ≥ 1

## TATTCATCTCTTAATGCCTT
CHEK2
  remaining target (mRNA or protein) (fraction of control): 0.61

## TAATCTTTATAAGACAGTCC
CHEK2
  remaining target (mRNA or protein) (fraction of control): 0.88

## GTGCTCGGTGAGGTATATCA
RIPK2
  remaining target (mRNA or protein) (fraction of control): 0.18

## TTATCTGCAAAGGATTGGTG
RIPK2
  remaining target (mRNA or protein) (fraction of control): 0.45

## AGAATAACTCCTAAACTCCA
CHEK2
  remaining target (mRNA or protein) (fraction of control): 0.82

## GTTATACCTTAGATACTG
NCOA2
  remaining target (mRNA or protein) (fraction of control): 0.84
